Source: patent US9168259B2 (GRÜNENTHAL GMBH, priority 2010, dated 2015)

Tests used:
KCNQ2/3 channels = target: T1, KCNQ2/3 channels (Homo sapiens, UniProt O43525+O43526); experiment: Fluorescence assay using a voltage sensitive dye (fluorimetry); assay type: cell-based; conditions: CHO-K1 cells expressing KCNQ2/3; for Emax: CHO-K1, plateau effect relative to saturated retigabine (50 μM) = 100%, negative values = antagonistic, read-out: Fluorimetry % efficacy (retigabine = 100%); for EC50: IC50 where % efficacy is negative, read-out: Fluorimetry EC50/IC50
T1 construct: expressed in transfected cells

rat = experiment: Low-intensity tail flick test (rat); assay type: in vivo; conditions: po, peroral
Description: Method II. Low-Intensity Tail Flick Test (Rat)
In the low-intensity tail flick test, the determination of the antinociceptive effect of the compounds according to the invention towards an acute noxious thermal stimulus is carried out by measuring the withdrawal reflex of the rat tail (tail flick) in response to a radiant heat beam (analgesia meter; model 2011 of the company Rhema Labortechnik, Hofheim, Germany) according to the method described by D'Amour and Smith (J. Pharm. Exp. Ther. 72, 74 79 (1941). To this end, the rats were placed in a plexiglass restrainer, and a low-intensity radiant heat beam (48° C.) was focused onto the dorsal surface of the tail root. The stimulus intensity was adjusted to result in a mean pre-drug control withdrawal latency of about 7 s, thus also allowing a supraspinal modulation of the spinally mediated acute nociceptive reflex. A cutoff time of 30 s was applied to avoid tissue damage. Male Sprague-Dawley rats (Janvier, Le Genest St. Isle, Frankreich) with weights of 200-250 g were used. 10 rats were used per group. Before administration of a compound according to the invention, the animals were pre-tested twice in the course of five minutes and the mean of these measurements was calculated as the pre-test mean. The antinociceptive effect was determined at 20, 40 and 60 min after peroral compound administration. The antinociceptive effect was calculated based on the increase in the tail withdrawal latency according to the following formula and is expressed as percentage of the maximum possible effect (MPE [%]): MPE=[(T1−T0)/(T2−T0)]*100
In this, T0 is the control latency time before and T1 the latency time after administration of the compound, T2 is the cutoff time and MPE is the maximum possible effect. Employing variant analysis (repeated measures ANOVA) allowed testing of statistically significant differences between the compounds according to the invention and the vehicle group. The significance level was set to p≦0.05. To determine the dose dependency, the particular compound according to the invention was administered in 3-5 logarithmically increasing doses, including a threshold dose and a maximum effective dose, and the ED50 values were determined with the aid of regression analysis. The ED50 calculation was performed at the time of maximum efficacy (usually 20 min after administration of the compounds).

[1] = MPE = % of maximum possible effect

T1 sequence (O43526 whole entry): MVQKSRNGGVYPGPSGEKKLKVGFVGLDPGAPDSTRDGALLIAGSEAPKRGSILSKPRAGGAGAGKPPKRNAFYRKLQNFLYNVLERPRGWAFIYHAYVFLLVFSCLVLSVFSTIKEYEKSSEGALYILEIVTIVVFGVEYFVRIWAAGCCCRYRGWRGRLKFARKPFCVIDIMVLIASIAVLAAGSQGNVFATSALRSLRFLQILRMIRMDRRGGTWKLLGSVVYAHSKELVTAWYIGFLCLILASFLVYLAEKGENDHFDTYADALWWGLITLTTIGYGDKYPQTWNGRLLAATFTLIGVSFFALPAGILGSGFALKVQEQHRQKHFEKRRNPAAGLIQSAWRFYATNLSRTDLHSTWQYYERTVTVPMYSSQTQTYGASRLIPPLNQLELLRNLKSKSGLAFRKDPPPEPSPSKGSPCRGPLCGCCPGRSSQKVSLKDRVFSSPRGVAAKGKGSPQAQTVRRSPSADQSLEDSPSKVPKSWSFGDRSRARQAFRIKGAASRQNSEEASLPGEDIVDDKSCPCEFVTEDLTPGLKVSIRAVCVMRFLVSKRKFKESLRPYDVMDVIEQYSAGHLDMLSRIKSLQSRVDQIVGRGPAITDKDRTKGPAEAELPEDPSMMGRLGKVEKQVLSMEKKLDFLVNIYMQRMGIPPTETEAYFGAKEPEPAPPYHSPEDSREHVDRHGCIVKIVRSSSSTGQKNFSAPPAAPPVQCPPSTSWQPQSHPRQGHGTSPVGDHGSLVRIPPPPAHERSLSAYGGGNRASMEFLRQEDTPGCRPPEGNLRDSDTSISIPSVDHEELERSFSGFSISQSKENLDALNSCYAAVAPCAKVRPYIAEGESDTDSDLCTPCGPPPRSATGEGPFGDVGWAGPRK
T1 sequence (O43525 whole entry): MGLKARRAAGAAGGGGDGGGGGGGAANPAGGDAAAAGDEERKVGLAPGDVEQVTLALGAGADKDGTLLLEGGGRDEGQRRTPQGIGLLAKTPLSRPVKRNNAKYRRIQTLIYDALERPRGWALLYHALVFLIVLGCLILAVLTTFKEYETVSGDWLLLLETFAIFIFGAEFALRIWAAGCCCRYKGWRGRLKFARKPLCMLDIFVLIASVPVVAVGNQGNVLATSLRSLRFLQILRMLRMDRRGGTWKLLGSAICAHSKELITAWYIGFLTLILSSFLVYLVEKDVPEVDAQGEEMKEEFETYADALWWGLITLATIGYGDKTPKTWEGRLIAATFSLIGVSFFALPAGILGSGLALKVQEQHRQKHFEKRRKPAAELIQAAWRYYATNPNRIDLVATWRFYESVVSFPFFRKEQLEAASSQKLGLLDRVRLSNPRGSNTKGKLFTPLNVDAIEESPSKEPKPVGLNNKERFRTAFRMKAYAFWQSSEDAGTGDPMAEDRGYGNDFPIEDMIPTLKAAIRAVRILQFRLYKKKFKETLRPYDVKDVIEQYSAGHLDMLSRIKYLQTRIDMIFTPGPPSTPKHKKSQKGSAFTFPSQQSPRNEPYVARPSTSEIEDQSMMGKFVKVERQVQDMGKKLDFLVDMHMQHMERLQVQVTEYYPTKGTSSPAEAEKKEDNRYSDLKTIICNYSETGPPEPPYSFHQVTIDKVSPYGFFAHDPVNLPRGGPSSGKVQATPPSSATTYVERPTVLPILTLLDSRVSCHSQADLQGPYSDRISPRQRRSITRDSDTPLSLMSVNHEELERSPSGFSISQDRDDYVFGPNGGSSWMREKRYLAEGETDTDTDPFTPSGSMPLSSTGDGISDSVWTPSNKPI

Row | Emax (KCNQ2/3 channels) | EC50 (KCNQ2/3 channels) | SMILES | inhibition in vivo at 4.64 mg/kg (rat; dose 4.64 mg/kg, MPE = % of maximum possible effect) | ED50 (rat; ED50 at time of maximum efficacy) | inhibition in vivo at 10 mg/kg (rat; [1]) | inhibition in vivo at 6.81 mg/kg (rat; dose 6.81 mg/kg, MPE = % of maximum possible effect)
1 | 160% | 56 nM | CCSc1nc(N2CCOCC2)cc(C)c1C(=O)NCc1cc(F)cc(F)c1 [Example 1, N-[(3,5-Difluoro-phenyl)-methyl]-2-ethylsulfanyl-4-methyl-6-morpholin-4-yl-pyridine-3-carboxylic acid amide] | 78% |  |  | 
2 | 171% | 134 nM | CCSc1nc(N2CCOCC2)cc(C)c1C(=O)NCc1cccc(F)c1 [Example 2, 2-ethylsulfanyl-N-[(3-fluorophenyl)-methyl]-4-methyl-6-morpholin-4-yl-pyridine-3-carboxylic acid amide] |  | 4.3 mg/kg |  | 
3 | 158% | 124 nM | CCSc1nc(N2CCOCC2)cc(C)c1C(=O)NCc1ccc(F)cc1 [Example 4, 2-Ethylsulfanyl-N-[(4-fluorophenyl)-methyl]-4-methyl-6-morpholin-4-yl-pyridine-3-carboxylic acid amide] |  |  | 94% | 
4 | 176% | 181 nM | CCCc1nc(N2CCOCC2)cc(C)c1C(=O)NCc1cccc(F)c1 [Example 10, N-[(3-Fluorophenyl)-methyl]-4-methyl-6-morpholin-4-yl-2-propyl-pyridine-3-carboxylic acid amide] |  |  | 81% | 
5 | 155% | 736 nM | COc1nc(N2CCOCC2)cc(C)c1C(=O)NCc1cccc(F)c1 [Example 19, N-[(3-Fluorophenyl)-methyl]-2-methoxy-4-methyl-6-morpholin-4-yl-pyridine-3-carboxylic acid amide] |  |  | 79% | 
6 | 144% | 219 nM | CCOc1nc(N2CCOCC2)cc(C)c1C(=O)NCc1cccc(F)c1 [Example 38, 2-Ethoxy-N-[(3-fluorophenyl)-methyl]-4-methyl-6-morpholin-4-yl-pyridine-3-carboxylic acid amide] |  |  | 61% | 
7 | 168% | 587 nM | CSc1nc(N2CCOCC2)cc(C)c1C(=O)NCc1cccc(F)c1 [Example 40, N-[(3-Fluorophenyl)-methyl]-4-methyl-2-methylsulfanyl-6-morpholin-4-yl-pyridine-3-carboxylic acid amide] |  |  | 84% | 
8 | 169% | 69 nM | CCSc1nc(N2CCOCC2)cc(C)c1C(=O)NCc1ccc(F)c(F)c1 [Example 41, N-[(3,4-Difluoro-phenyl)-methyl]-2-ethylsulfanyl-4-methyl-6-morpholin-4-yl-pyridine-3-carboxylic acid amide] |  |  |  | 92%
9 | 244% | 42 nM | CCSc1nc(N2CCOCC2)cc(C)c1C(=O)NCCCC(C)(C)C [Example 67, N-(4,4-Dimethyl-pentyl)-2-ethylsulfanyl-4-methyl-6-morpholin-4-yl-pyridine-3-carboxylic acid amide] |  |  | 100% | 
10 | 215% | 206 nM | CCSc1nc(N2CCOCC2)cc(C)c1C(=O)NCCCC(C)C [Example 79, 2-Ethylsulfanyl-4-methyl-N-(4-methyl-pentyl)-6-morpholin-4-yl-pyridine-3-carboxylic acid amide] |  |  | 46% | 
